This is an account of results in PMC11696576, “Next generation thiazolyl ketone inhibitors of cytosolic phospholipase A2 α for targeted cancer therapy” (Nature Communications, 2025).

For one assay, the system named is whole blood. Put plainly: eicosanoid release from LPS-stimulated whole blood. It is filed as cell-based, human. Also on record: LTB4 / 5-HETE / 11,12-EET / 12-HETE: unit not given here. The conditions noted are these: for 15-HETE level, whole blood / PGE2 level, whole blood / TxB2 level, whole blood: individual replicate. From the text: In whole blood, bacterial lipopolysaccharide (LPS) stimulated the release of PGE2, thromboxane B2 (TXB2), and 15-hydroxyeicosatetraenoic acid (HETE). […] The levels of leukotriene B4 (LTB4), 12-HETE, 5-HETE and 11,12-epoxyeicosatrienoic acid (EET) were not affected by LPS stimulation but increased when exogenous AA was included, irrespective of the presence of GK420 (Fig. S1a).
Fig. 3 Ex vivo suppression of eicosanoid production by GK420. a Eicosanoid levels (pmol/mL) in the plasma of whole blood pretreated with vehicle (DMSO), 3, 10 or 30 µM GK420,) 10 µM arachidonyl trifluoromethyl ketone (ATK), or 1 μM indomethacin (Indo) before stimulation with 1 µg/mL LPS for 24 h. […] All box and whisker plots show the mean (center line), stdev (box), and min and max values (whiskers) from 4 biological replicates. P-values were determined using RM-one way ANOVA with Dunnett’s correction for multiple comparisons.
Aliquots of 0.4 mL of heparinized whole blood were mixed with 1.6 mL of serum-free RPMI cultivation medium with- or without indomethacin (# I7378, Sigma-Aldrich), GK420, or arachidonyl trifluoromethyl ketone (ATK) (Cayman #62120), prior to the addition of lipopolysaccharides (LPS) (1 μg/mL) to activate the cPLA2α enzyme (LPS was from E. coli 026:B6 γ-irradiated, #L2654, Sigma-Aldrich). Exogenous arachidonic acid (5–10 µM) (#3555, Sigma-Aldrich) was added after 23.5 h, for the final 30 mins of the 24 h stimulation. Following treatment (24 h, 37 °C, 5% CO2), the diluted blood was centrifuged (5992 × g for 10 min at 4 °C) to isolate the plasma from the cell fraction. Plasma samples were stored at −80 °C until analysis. Samples were analyzed at the Lipid Maps Consortium, UCSD according to the standard methods. 200 µL of sample was subjected to solid phase extraction of the eicosanoids using the StrataX solid phase extraction columns from Phenomenex and analyzed by UHPLC-MS/MS using full standards mix.

In the next assay the test system is isolated human PBMCs. Put plainly: eicosanoid release from A23187-stimulated PBMCs (ELISA). The conditions noted are these: for LTB4 level, PBMCs / PGE2 level, PBMCs / TxB2 level, PBMCs: A23187, individual replicate; for 6-Keto PGF1a: A23187 stimulated; for IC50: Homo sapiens, PBMC, 0.25 h, 30 µM A23187 15 min. Also on record: 6-Keto PGF1a / 12-HETE: unit not given here. It is filed as cell-based. As for the experimental part:
In PBMCs, the calcium ionophore A23187 stimulated the release of PGE2, TXB2, LTB4, 6-keto prostaglandin F1α (PGF1α), and 12-HETE.
PBMCs were isolated from buffy coats using Lymphoprep as described by the manufacturer ([…] Technologies, Vancouver, Canada). Red blood cells were lysed and removed using RBC lysis buffer (Roche, Basel, Switzerland) and the remaining cells were resuspended in 10 mL of RPMI-1640 supplemented with 5% FBS. The TC20 automated cell counter (BIO-RAD, Hercules, California, USA) was used to count the number of cells and check the viability by staining with trypan blue (0.4%) (NanoEnTek, Waltham, MA, USA). For experiments, 5 × 10^5 cells were seeded in 0.5 mL in 24 well plates with RPMI medium supplemented with 5% FBS, 0.3 mg/mL glutamine, and 0.1 mg/mL gentamicin. Cells were preincubated with inhibitors for 2 h before incubating with 30 µM Ca^2+ ionophore A23187 for 15 min to activate cPLA2α. After incubation, the supernatant was obtained by centrifugation at 5992 × g for 10 min at 4° and stored at −80 °C until assayed for PGE2, LTB4, TxB2, 6-Keto PGF1α, and 12S-HETE using enzyme-linked immunosorbent assays (ELISAs) (Cayman #514435, Cayman #10009292, Cayman #501020, Cayman #15210, and Enzo Lifesciences #ADI-900-050). After an overnight hybridization, the enzymatic conversion of substrate was read at OD420 nm using a Cytation 5 multimode platereader (Biotek Instruments, Winooski, VT, USA). Standard curves fit using 4-parameter logistic regression in myassays.com were used to calculate eicosanoid concentrations.
In general terms: In an ELISA, binding on a coated surface is turned into a signal by an enzyme label.

A further assay has as its target T1, secreted GV sPLA2 (Homo sapiens, UniProt P39877).
T1 sequence (P39877 21-138): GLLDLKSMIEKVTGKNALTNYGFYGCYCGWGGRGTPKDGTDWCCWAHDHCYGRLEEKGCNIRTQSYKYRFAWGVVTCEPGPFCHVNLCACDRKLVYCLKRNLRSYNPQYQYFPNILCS
More on the design: method as in PMID 25152071. The conditions noted are these: 0.091 mole fraction; previously published data ref 19; cited from earlier work.

Setting [1] is: 10 uM + LPS + AA, listed as AVX420.

Structures are written as SMILES. Where “and” joins values, the source holds several entries; their conditions need not be identical. Equal values may be shown once. Read-outs that look alike come from different tables or passages of the source.

Regarding `CCCCCCCOc1ccc(OCC(=O)c2nc(C(=O)OC)cs2)cc1` [GK420], the “15-HETE level, whole blood” value in the assay on whole blood (3 uM + LPS) was 0.23 pmol/mL and 1.1 pmol/mL and 0.41 pmol/mL and 0.42 pmol/mL; with whole blood (10 uM + LPS + AA) it was 68.15 pmol/mL and 72.88 pmol/mL and 78.71 pmol/mL and 78.11 pmol/mL; in the assay on whole blood (10 uM + LPS), 0.65 pmol/mL and 0.26 pmol/mL and 0.51 pmol/mL and 0.31 pmol/mL; with whole blood (30 uM + LPS), 0.31 pmol/ml (2×) and 0.35 pmol/ml and 0.42 pmol/ml. Further, the “PGE2 level, whole blood” value with whole blood (3 uM + LPS) was 0.2 pmol/mL and 2.5 pmol/mL and 0.7 pmol/mL and 0.9 pmol/mL; in the assay on whole blood (10 uM + LPS + AA) it was 11.8 pmol/mL and 18.9 pmol/mL and 15.6 pmol/mL and 18.2 pmol/mL; in the assay with whole blood (10 uM + LPS), 1.7 pmol/mL and 0.3 pmol/mL and 0.7 pmol/mL and 0.1 pmol/mL; in the assay on whole blood (30 uM + LPS), 0.05 pmol/ml and 0.4 pmol/ml and 0.1 pmol/ml (2×). The “TxB2 level, whole blood” value in the assay on whole blood (3 uM + LPS) was 1 pmol/mL and 10.1 pmol/mL and 3.2 pmol/mL and 4.5 pmol/mL; in the assay on whole blood (10 uM + LPS + AA), 14.6 pmol/mL and 27.5 pmol/mL and 24.1 pmol/mL and 18.1 pmol/mL; with whole blood (10 uM + LPS) it was 8.4 pmol/mL and 1.9 pmol/mL and 2.9 pmol/mL and 0.8 pmol/mL; in the assay on whole blood (30 uM + LPS) it was 0.2 pmol/mL and 3.4 pmol/mL and 1.2 pmol/mL and 1.5 pmol/mL. Besides, the 5-HETE with whole blood (setting [1]) is 59.11 and 60.82 and 63.51 and 71.56. Further, in the assay with whole blood (setting [1]), the “11,12-EET” value is 12.46 and 11.85 and 10.02 and 12.34. For the same molecule, the 12-HETE in the assay with whole blood (setting [1]) was 73 and 139.7 and 83.5 and 77.9. The LTB4 in the assay with whole blood (setting [1]) was 0.6 and 0.8. The “production of PGE2, TXB2 and 15-HETE” value in the assay on whole blood (whole blood, LPS) is given as “suppressed their production”. Besides, the “production of PGE2, TXB2 and 15-HETE with excess free AA” value in the assay on whole blood (whole blood, LPS + exogenous free AA) is “no effect”. Moreover, the “LTB4 level, PBMCs” value with isolated human PBMCs (0.5 µM) was 429.9 pg/mL and 749.3 pg/mL and 255.6 pg/mL and 605.5 pg/mL; in the assay on isolated human PBMCs (1 µM), 370.9 pg/mL and 289.7 pg/mL and 718.4 pg/mL and 239.1 pg/mL; with isolated human PBMCs (2.5 µM), 144.2 pg/mL and 219 pg/mL and 387.5 pg/mL and 190 pg/mL; with isolated human PBMCs (5 µM), 107.5 pg/mL and 125.8 pg/mL and 244.5 pg/mL and 111.7 pg/mL; with isolated human PBMCs (10 µM), 64.7 pg/mL and 93.8 pg/mL and 115.3 pg/mL and 64.3 pg/mL. Further, the “PGE2 level, PBMCs” value in the assay with isolated human PBMCs (0.5 µM) is 169.2 pg/mL and 38.5 pg/mL and 267.8 pg/mL and 309 pg/mL; with isolated human PBMCs (1 µM) it was 247.2 pg/mL and 134.2 pg/mL and 36.8 pg/mL and 244.2 pg/mL; in the assay on isolated human PBMCs (2.5 µM) it was 238.2 pg/mL and 102.2 pg/mL and 66 pg/mL and 196.8 pg/mL; in the assay with isolated human PBMCs (5 µM), 149.4 pg/mL and 71.6 pg/mL and 38.8 pg/mL and 141.2 pg/mL; with isolated human PBMCs (10 µM), 129 pg/mL and 52.7 pg/mL and 30.5 pg/mL and 67 pg/mL. Moreover, the “TxB2 level, PBMCs” value was 8408.2 pg/mL and 1252.3 pg/mL and 13129.8 pg/mL and 13753.8 pg/mL in the assay with isolated human PBMCs (0.5 µM); 11110.6 pg/mL and 8481.1 pg/mL and 1330.2 pg/mL and 14838.7 pg/mL in the assay with isolated human PBMCs (1 µM); 7528.6 pg/mL and 7919.2 pg/mL and 1078.1 pg/mL and 10138.3 pg/mL in the assay with isolated human PBMCs (2.5 µM); 4591 pg/mL and 3235.3 pg/mL and 764.8 pg/mL and 7035.5 pg/mL in the assay on isolated human PBMCs (5 µM); 2621.7 pg/mL and 1488.5 pg/mL and 633.4 pg/mL and 3277.7 pg/mL in the assay on isolated human PBMCs (10 µM). The “6-Keto PGF1a” value was 21.6 and 26.4 in the assay with isolated human PBMCs (0.5 µM); 16.6 and 27.5 with isolated human PBMCs (1 µM); 15.1 and 17.9 in the assay on isolated human PBMCs (2.5 µM); 16.9 and 21.1 in the assay on isolated human PBMCs (5 µM). Further, the IC50 (usually the point on the concentration scale where inhibition reaches its midpoint) with isolated human PBMCs (PBMCs, read-out: IC50 LTB4 inhibition) came out at 317 nM; with isolated human PBMCs (PBMCs, read-out: IC50 PGE2 inhibition), 1100 nM; in the assay on isolated human PBMCs (PBMCs, read-out: IC50 TXB2 inhibition) it was 2200 nM. The “effect on 6-keto PGF1α and 12-HETE” value in the assay on isolated human PBMCs (PBMCs, A23187, IC50 values could not be calculated) was “tendency to suppress”.
As to `CCCCCCCCc1ccc(OCC(=O)c2nc(C(=O)OC)cs2)cc1` [GK470], on secreted GV sPLA2, the “GV sPLA2 % Inhib” value was 41%.
